Drawing on PMC11378298 (ACS Chemical Neuroscience, 2024), this text covers inhibition and IC50 for 20 compounds.

One may read the IC50 as the concentration that gives 50% inhibition.

Each structure is given as a SMILES string. Structures can show the parent of a compound that is named as a salt.

The target of this test is GSK-3β (Homo sapiens, UniProt P49841). As to the kind of experiment: biochemical. As to conditions: for inhibition at 10 µM: read-out: Percent of enzyme inhibition at 10 μM of inhibitor concentration. Here is the method:
We evaluated the pharmacological properties of the compounds in vitro against GSK-3β using the GSK-3β Kinase Enzyme System followed by ADP-Glo bioluminescent assay.[50] The principle of the assay is to determine the amount of ADP formed from ATP in the kinase reaction. […] Additionally, compounds 11 and 36 in complex with GSK-3β were analyzed by the proteins’ melting temperature determination using Thermal Shift Assay (see Figure S1 in the SI).
The inhibitory activities of the tested compounds against the GSK-3β human recombinant kinase were measured using Promega’s GSK-3β Kinase Enzyme System (Promega; Madison, WI, USA), according to the provided manufacturer’s instruction, using the low-volume white polystyrene 384-well plates. The ADP-Glo Assay (Promega; Madison, WI, USA) was used for bioluminescent detection of the kinase activity. Tested compounds were prepared as 1 mM stock solutions in DMSO and diluted with the Kinase Assay Buffer before use (40 mM Tris, pH 7.5, enriched with 50 μM dithiothreitol; DTT) to obtain the desired compounds’ concentrations. The kinase enzyme, GSK-3β-substrate (derived from human muscle glycogen synthase 1), and ATP were also diluted in the assay buffer before use. At first, GSK-3β (10 ng per well) was incubated with the tested sample (10 μM in well) for 5 min. In the case of blank wells, the DMSO solution (1% in well) was used instead of the target samples’ solutions. After the incubation period, ATP (25 μM in well) and GSK-3β-substrate (0.2 μg/μL in well) were added to start the enzymatic reaction. The reaction mixture was kept at room temperature for 1 h, followed by the addition of the ADP-Glo reagent, to terminate the kinase reaction and deplete any remaining ATP. After the following 40 min—a second reagent (Kinase Detection Reagent) was applied to convert the obtained ADP to ATP and to generate light from the newly synthesized ATP using a luciferase/luciferin reaction. The mixture was kept for another 30 min at room temperature, then the luminescence was measured. Based on equation 100 – (S/B) × 100 (where S and B were the respective enzyme activities with and without the tested sample, respectively) the percent of inhibition of GSK-3β for each compound was calculated. […] Calculations were made using nonlinear regression (GraphPad Prism 9; GraphPad Software, San Diego, CA, USA) by plotting the residual enzyme activities against the applied inhibitor concentration. […] Each data point was collected in triplicate.

Chain of GSK-3β (P49841 whole entry): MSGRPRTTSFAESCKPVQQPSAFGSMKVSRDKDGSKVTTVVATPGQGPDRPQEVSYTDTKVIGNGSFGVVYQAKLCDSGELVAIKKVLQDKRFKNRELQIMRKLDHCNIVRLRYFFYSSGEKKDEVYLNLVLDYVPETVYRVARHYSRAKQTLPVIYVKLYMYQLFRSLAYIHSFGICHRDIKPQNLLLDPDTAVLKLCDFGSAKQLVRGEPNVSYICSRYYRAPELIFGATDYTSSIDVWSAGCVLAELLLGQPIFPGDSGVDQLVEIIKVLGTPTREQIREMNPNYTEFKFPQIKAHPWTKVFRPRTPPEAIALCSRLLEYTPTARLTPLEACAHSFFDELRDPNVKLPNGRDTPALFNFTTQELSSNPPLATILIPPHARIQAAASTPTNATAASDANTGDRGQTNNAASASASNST

With `O=C(Nc1cc(C2=CCN(C[C@H]3CCCN3)C2)ccn1)C1CC1` [(R)-15, (R)-N-(4-(1-(Pyrrolidin-2-ylmethyl)-2,5-dihydro-1H-pyrrol-3-yl)pyridin-2-yl)cyclopropanecarboxamide hydrochloride], the inhibition at 10 µM came out at 17.8 ± 1.7%. `O=C(Nc1cc(C2=CCN(C[C@@H]3CCCN3)C2)ccn1)C1CC1` [(S)-15, (S)-N-(4-(1-(Pyrrolidin-2-ylmethyl)-2,5-dihydro-1H-pyrrol-3-yl)pyridin-2-yl)cyclopropanecarboxamide Hydrochloride]: the midpoint of inhibition, the IC50, lay at 11.3 ± 1.12 µM. Still for that read-out and setting: the value for `CC(=O)N1CC=C(c2ccnc(NC(=O)C3CC3)c2)C1` [Compound 10, N-(4-(1-Acetyl-2,5-dihydro-1H-pyrrol-3-yl)pyridin-2-yl)cyclopropanecarboxamide] was 0.599 ± 0.011 µM. The compound `NCCC(=O)N1CC=C(c2ccnc(NC(=O)C3CC3)c2)C1` [Compound 12, N-(4-(1-(3-Aminopropanoyl)-2,5-dihydro-1H-pyrrol-3-yl)pyridin-2-yl)cyclopropanecarboxamide Hydrochloride] registered an IC50 of 1.36 ± 0.11 µM. For `NCCCC(=O)N1CC=C(c2ccnc(NC(=O)C3CC3)c2)C1` [Compound 13, N-(4-(1-(4-Aminobutanoyl)-2,5-dihydro-1H-pyrrol-3-yl)pyridin-2-yl)cyclopropanecarboxamide Hydrochloride], the IC50 was 5.49 ± 0.363 µM. For `O=C(Nc1cc(C2=CCN(C(=O)[C@@H]3CCCN3)C2)ccn1)C1CC1` [Compound 14, N-(4-(1-Prolyl-2,5-dihydro-1H-pyrrol-3-yl)pyridin-2-yl)cyclopropanecarboxamide], the IC50 was found to be 7.72 ± 0.543 µM.

In the case of `CS(=O)(=O)N1CC=C(c2ccnc(NC(=O)C3CC3)c2)C1` [Compound 16, N-(4-(1-(Methylsulfonyl)-2,5-dihydro-1H-pyrrol-3-yl)pyridin-2-yl)cyclopropanecarboxamide], half-maximal inhibition (IC50) required 6.2 ± 0.163 µM.

As to `CCCS(=O)(=O)N1CC=C(c2ccnc(NC(=O)C3CC3)c2)C1` [Compound 17, N-(4-(1-(Propylsulfonyl)-2,5-dihydro-1H-pyrrol-3-yl)pyridin-2-yl)cyclopropanecarboxamide], half-maximal inhibition (IC50) was put at 9.27 ± 0.467 µM.

For `O=C(Nc1cc(C2=CCN(S(=O)(=O)C3CCCC3)C2)ccn1)C1CC1` [Compound 18, N-(4-(1-(Cyclopentylsulfonyl)-2,5-dihydro-1H-pyrrol-3-yl)pyridin-2-yl)cyclopropanecarboxamide], the IC50 was 3.25 ± 0.083 µM. Take `NCCS(=O)(=O)N1CC=C(c2ccnc(NC(=O)C3CC3)c2)C1` [Compound 19, N-(4-(1-((2-Aminoethyl)sulfonyl)-2,5-dihydro-1H-pyrrol-3-yl)pyridin-2-yl)cyclopropanecarboxamide Hydrochloride]: the IC50 stood at 1.37 ± 0.044 µM. In turn, `NCCCS(=O)(=O)N1CC=C(c2ccnc(NC(=O)C3CC3)c2)C1` [Compound 20, N-(4-(1-((3-Aminopropyl)sulfonyl)-2,5-dihydro-1H-pyrrol-3-yl)pyridin-2-yl)cyclopropanecarboxamide Hydrochloride] yielded a 50% inhibitory concentration (IC50) of 9.99 ± 0.406 µM. In turn, `N#Cc1ccc(-c2ccnc(NC(=O)C3CC3)c2)cc1` [Compound 22, N-(4-(4-Cyanophenyl)pyridin-2-yl)cyclopropanecarboxamide] displayed an IC50 of 1.13 ± 0.037 µM. Compound `N#Cc1cccc(-c2ccnc(NC(=O)C3CC3)c2)c1` [Compound 23, N-(4-(3-Cyanophenyl)pyridin-2-yl)cyclopropanecarboxamide] showed an IC50 of 0.952 ± 0.021 µM. In the case of `N#Cc1ccc(-c2ccnc(NC(=O)C3CC3)c2)cn1` [Compound 24, N-(6-Cyano-[3,4′-bipyridin]-2′-yl)cyclopropanecarboxamide], the IC50 is 0.212 ± 0.007 µM. Consider `N#Cc1cc(-c2ccnc(NC(=O)C3CC3)c2)ccn1` [Compound 25, N-(2′-Cyano-[4,4′-bipyridin]-2-yl)cyclopropanecarboxamide], for which the inhibition at 10 µM stood at 34.4 ± 2.8%. With `N#Cc1ccc(-c2ccnc(NC(=O)C3CC3)c2)s1` [Compound 26, N-(4-(5-Cyanothiophen-2-yl)pyridin-2-yl)cyclopropanecarboxamide], the IC50 turned out to be 0.146 ± 0.005 µM. Compound `O=C(Nc1cc(-c2ccc(-c3ncon3)cc2)ccn1)C1CC1` [Compound 32, N-(4-(4-(1,2,4-Oxadiazol-3-yl)phenyl)pyridin-2-yl)cyclopropanecarboxamide] showed an IC50 of 0.257 ± 0.005 µM.

Compound `O=C(Nc1cc(-c2cccc(-c3ncon3)c2)ccn1)C1CC1` [Compound 33, N-(4-(3-(1,2,4-Oxadiazol-3-yl)phenyl)pyridin-2-yl)cyclopropanecarboxamide] displayed an IC50 of 0.898 ± 0.032 µM. Take `O=C(Nc1cc(-c2ccnc(-c3ncon3)c2)ccn1)C1CC1` [Compound 35, N-(2′-(1,2,4-Oxadiazol-3-yl)-[4,4′-bipyridin]-2-yl)cyclopropanecarboxamide]: the IC50 turned out to be 0.809 ± 0.028 µM. `O=C(Nc1cc(-c2ccc(-c3ccccc3)s2)ccn1)C1CC1` [Compound 37, N-(4-(5-Phenylthiophen-2-yl)pyridin-2-yl)cyclopropanecarboxamide] gave an IC50 of 5.22 ± 0.301 µM.
